Eleven molecules from ChEMBL document CHEMBL3886495, “Aminoheteroaryl benzamides as kinase inhibitors” (2016) can be followed below.

In assay [1] the target is T1, Mitogen-activated protein kinase 1 (Homo sapiens, UniProt P28482). The experiment in a line: The assay was carried out in 20 mM HEPES [pH 7.5], 5 mM MgCl2, 1 mM DTT, 0.01% Tween-20, 0.05% BSA using 0.02 nM ERK2, 400 nM ERKtide peptide and 35 uM ATP (all concentrations are final in the reaction) in a total volume of 10.25 uL. A 16-point, half-log dilution series of compounds at 41x final concentration was used for generating IC50 curves. Compound dilution series were prepared in 100% DMSO. ERK2 was preincubated with compounds for 30 minutes at ambient temperature. Reaction was initiated by addition of a substrate cocktail of ERKtide peptide and ATP and was allowed to proceed for 4 hours at ambient temperature. Reaction was terminated by addition of 10 uL of a 2x stop buffer consisting of 100 mM Tris-Cl [pH 7.5], 25 mM EDTA, 0.01% Tween 20, 20 ug/mL of AlphaScreen Protein A Acceptor Beads, 20 ug/mL of Streptavidin Donor Beads (PerkinElmer, Waltham, Mass.), and 1:1000 dilution phospho-EGF Receptor (Thr669) antibody (Cat #8808, Cell Signaling Technology, Danvers, Mass.). Terminated reactions were read, after overnight incubation in the dark, on an EnVision Multilabel Plate Reader (PerkinElmer, Waltham, Mass.), with excitation and emission wavelengths set to 680 nm and 570 nm, respectively. IC50 values were determined using a four-parameter fit. In general terms: In Alpha technology, singlet oxygen from a donor bead excites a nearby acceptor bead.
T1 sequence (P28482 whole entry): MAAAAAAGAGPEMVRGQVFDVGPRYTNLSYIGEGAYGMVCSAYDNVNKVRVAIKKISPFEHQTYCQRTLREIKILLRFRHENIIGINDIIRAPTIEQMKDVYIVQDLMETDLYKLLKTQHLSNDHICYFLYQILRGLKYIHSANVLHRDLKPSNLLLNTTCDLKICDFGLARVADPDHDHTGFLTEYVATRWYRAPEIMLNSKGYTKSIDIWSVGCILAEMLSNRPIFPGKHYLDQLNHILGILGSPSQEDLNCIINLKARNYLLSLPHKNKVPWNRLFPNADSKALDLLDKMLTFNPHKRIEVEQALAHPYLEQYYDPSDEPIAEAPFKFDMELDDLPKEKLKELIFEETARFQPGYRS

In assay [2] the target is T1, Mitogen-activated protein kinase 1. The experiment in a line: (§1) AlphaScreen Assay: Compound potency against activated ERK2 is determined using a kinase assay that measures ERK2-catalyzed phosphorylation of biotinylated ERKtide peptide substrate ([Biotin]-AHA-KRELVEPLTPSGEAPNQALLR-[NH2], the peptide sequence derived from EGF receptor: SEQ ID NO:1). The assay is carried out in 50 mM HEPES [pH 7.5], 5 mM MgCl2, 1 mM DTT, 0.01% Tween-20, 0.05% BSA using 0.25 nM ERK2, 200 nM ERKtide peptide and 35 uM ATP (all concentrations are final in the reaction) in a total volume of 10.25 uL. A 16-point, half-log dilution series of compounds at 41x final concentration is used for generating IC50 curves. Compound dilution series are prepared in 100% DMSO. ERK2 is preincubated with compounds for 30 minutes at ambient temperature. Reaction is initiated by addition of a substrate cocktail of ERKtide peptide and ATP and is allowed to proceed for 2-3 hours at ambient temperature. Reaction is terminated by addition of 10 uL of a 2x stop buffer consisting of 100 mM Tris-Cl [pH 7.5], 25 mM EDTA, 0.01% Tween 20, 10 ug/mL of AlphaScreen Protein A Acceptor Beads, 10 ug/mL of Streptavidin Donor Beads (PerkinElmer, Waltham, Mass.), and 1.4 ug/mL phospho-EGF Receptor (Thr669) antibody (Cat #3056, Cell Signaling Technology, Danvers, Mass.).

The target is the same in assay [3]. The assay is described as §1, with “Kinase Assay (New):” for “AlphaScreen Assay:”, “Mass.). Terminated reactions are read, after overnight incubation in the dark, on an EnVision Multilabel Plate Reader (PerkinElmer, Waltham, Mass.), with excitation and emission wavelengths set to 680 nm and 570 nm, respectively. IC50 values are determined using a four-parameter fit.” for “Mass.).”.

With `Nc1ncc([C@H]2CC[C@H](O)CC2)nc1-c1ccc(C(=O)NCc2cccc(Cl)n2)c(F)c1`, the IC50 in assay [1] was found to be 21 nM. For the molecule `Cc1nn(C(F)F)cc1-c1cnc(N)c(-c2ccc(C(=O)N[C@H](CO)c3cccc(Cl)c3)c(F)c2)c1`, the IC50 in assay [1] was 0.0245 nM. Consider `Nc1cc(-c2cc(C3CCOCC3)cnc2N)ccc1C(=O)N[C@H](CO)c1ccccc1`, for which the IC50 in assay [1] is 3.04 nM; in assay [2], 5.24 nM. Consider `CC(C)n1cc(-c2cnc(N)c(-c3ccc(C(=O)N[C@H](CO)c4ccccc4)c(F)c3)c2)cn1`, for which the IC50 in assay [3] came out at 2.06 nM.

For `Cn1ccc(-c2cnc(N)c(-c3ccc(C(=O)N[C@H](CO)c4cccc(Cl)c4)c(F)c3)c2)n1`, in assay [1], the IC50 was 0.0937 nM. In the case of `Nc1ncc(N2CCOCC2)cc1-c1ccc(C(=O)N[C@H](CO)c2ccccc2)c(F)c1`, the figures for the IC50 in assay [1] and in assay [2] were 1.31 nM and 20.6 nM, respectively.

Turning to `Cn1cc(-c2cnc(N)c(-c3ccc(C(=O)N[C@H](CO)c4ccccc4)c(F)c3)c2F)cn1`, the IC50 in assay [3] is 9.77 nM.

`Nc1ncc(C2CCOCC2)nc1-c1ccc(C(=O)N[C@H](CO)C2CCCCC2)c(F)c1`: the IC50 in assay [3] came out at 26.5 nM. For `CS(=O)(=O)[C@H]1CC[C@H](c2cnc(N)c(-c3ccc(C(=O)NCc4ccccc4)c(F)c3)n2)CC1`, the values for the IC50 in assay [1] and in assay [3] were 29.7 nM and 64.4 nM, respectively. On to `Nc1ncc([C@H]2CC[C@@H](O)CC2)nc1-c1ccc(C(=O)NCc2cccc(Cl)n2)c(F)c1`, for which, in assay [1], the IC50 was 159 nM. For `Cc1nn(C)cc1-c1cnc(N)c(-c2ccc(C(=O)N[C@H](CO)c3ccccc3)c(F)c2)c1`, the IC50 in assay [3] is 1.41 nM.

A word on the IC50: it is the concentration that inhibits the measured activity by half.
